The test system of one data set is rhesus monkeys. The data set is described as follows: conflict model of anxiolytic activity which also measures sedation. Type of data set: in vivo. Particulars: for sedative activity (conflict model): intravenously; for anxiolytic effect (conflict model): intravenously in propylene glycol/water. Here is the method:
The data in FIGS. 21A-21F reflect the ability of the compounds or drugs to exert an anxioyic effect in rhesus monkeys (J. Rowlett, J. M. Cook et al., unpublished results) when given intravenously in propylene glycol/water solution. This is the conflict model of anxiolytic activity which also measures sedation. […] In FIG. 21B, SH-053-2′F (JY-XHE-053) is anxiolytic at a dose of greater than 0.13 mg/kg, but exerts only some slight sedation at doses greater than 1.2 mg/kg (responses decrease). In FIG. 21C it is clear the S-enantiomer of SH-053-2′F—S—CH3 is anxiolytic with no sedation up to 10-18 mg/kg, which is the highest dose tested.

Data set [1] relates to neuropathic pain after CCI of the sciatic nerve. The data set is described as follows: chronic constriction injury (CCI) model, mechanical sensitization (von Frey filaments). The class given is in vivo, mice. Here is the method:
In addition, the pro- or antinociceptive effects of the compounds of the present invention are analyzed in the chronic constriction injury (CCI) model. The GABAA receptor subunit selective test compounds of the present invention are analysed in the CCI model in 7-8-week-old C57BL/6 mice. See Bennett, G. J. & Xie, Y. K. A peripheral mononeuropathy in rat that produces disorders of pain sensation like those seen in man. […] Seven to eight week old mice are anesthetized with isofluran. Unilateral constriction injury of the left sciatic nerve just proximal to the trifurcation is performed with three loose ligatures. In sham-operated animals the sciatic nerve is exposed and the connective tissue is freed, but no ligatures are applied. […] Heat hyperalgesia, cold allodynia and mechanical sensitization are assessed 7-9 days after surgery. Mechanical sensitivity is assessed with electronic von Frey filaments (IITC).
Pain studies—Neuropathic pain: HZ166 and gabapentin were analyzed in the chronic constriction injury (CCI) model. Unilateral constriction injury of the left sciatic nerve just proximal to the trifurcation was performed as described previously (Bennett and Xie, 1988). Anesthesia was induced and maintained by 2% isoflurane, combined with oxygen (30%). The sciatic nerve was exposed at the mid-thigh level proximal to the sciatic trifurcation by blunt dissection through the biceps femoris muscle. […] of nerve were freed of adhering tissue and three chromic gut ligatures (4/0) (Ethicon) were loosely put around the nerve with about 1 mm spacing. The ligatures were tied until they elicited a brief twitch in the hindlimb. The surgical wound was closed in layers. Heat hyperalgesia and mechanical sensitization were assessed 7-16 days after surgery.
Pain Studies—Mechanical sensitization: Mechanical sensitivity was assessed with dynamic von Frey filaments (IITC, Woodland Hills, Calif.). 4-5 measurements were made for each time point and animal and averaged. Measurements of paw withdrawal thresholds of the injured paw and of the contralateral paw were made alternately.
Statistical Analysis: For all different doses and vehicle, baseline paw withdrawal thresholds/latencies on day 7 after nerve ligation or on day 2 after zymosan A injection were subtracted from all later withdrawal thresholds and the area under the curve (AUC) was calculated. Drug effects were expressed as percent maximum possible effect (MPE) calculated from comparisons of paw withdrawal latencies or thresholds obtained prior to surgery or inflammation and before and after drug treatment. […] Unless otherwise indicated, statistical comparisons were made with one-way analysis of variance (ANOVA) followed by Scheffe's post hoc test. P values<0.05 were considered significant.

Data set [2] addresses T1, GABAA/α5 (α5β3γ2 GABAA receptor) (Homo sapiens, UniProt P18507+P31644).
T1 construct: expressed in transfected cells
The data set is described as follows: competitive binding assay with [3H]flunitrazepam. The method, then: (§1) Membranes were harvested with a Brandel cell harvester followed by three ice-cold washes onto polyethyleneimine-pretreated (0.3%) Whatman GF/C filters. Filters were dried overnight and then soaked in Ecoscint, a liquid scintillation cocktail (National Diagnostics; Atlanta, Ga.). Bound radioactivity was quantified by liquid scintillation counting. Membrane protein concentrations were determined using an assay kit from Bio-Rad (Hercules, Calif.) with bovine serum albumin as the standard.
as §1, with “The GABAA subunit selectivity of several compounds prepared as described above were determined using competitive binding assays. […] Membranes” for “Membranes”

Data set [3] concerns the target T2, GABAA/α1 (α1β3γ2 GABAA receptor) (Homo sapiens, UniProt P14867+P18507).
T2 construct: expressed in transfected cells
The data set can be described thus: competitive binding assay with [3H]flunitrazepam. Particulars: Binding Affinity at GABAA/α1, Table 4, stereoisomers. The method, then:
as §1
as §1, with “The GABAA subunit selectivity of several compounds prepared as described above were determined using competitive binding assays. […] Membranes” for “Membranes”

In data set [4] the target is T3, GABAA/α2 (α2β3γ2 GABAA receptor) (Homo sapiens, UniProt P18507+P47869).
T3 construct: expressed in transfected cells
The data set can be described thus: competitive binding assay with [3H]flunitrazepam. Particulars: Binding Affinity at GABAA/α2, Table 4, stereoisomers. The method, then:
as §1
as §1, with “The GABAA subunit selectivity of several compounds prepared as described above were determined using competitive binding assays. […] Membranes” for “Membranes”

Data set [5] concerns the target T4, GABAA/α3 (α3β3γ2 GABAA receptor) (Homo sapiens, UniProt P18507+P34903).
T4 construct: expressed in transfected cells
The data set can be described thus: competitive binding assay with [3H]flunitrazepam. The note with it: Binding Affinity at GABAA/α3, Table 4, stereoisomers. Here is the method:
as §1
as §1, with “The GABAA subunit selectivity of several compounds prepared as described above were determined using competitive binding assays. […] Membranes” for “Membranes”

Structures are written as SMILES.

A word on the melting point: it is the temperature of the solid-liquid transition. As to `CCOC(=O)c1ncn2c1CN=C(c1ccccc1)c1cc(Cl)ccc1-2`, the melting point was 174 to 175 °C.
Same read-out and setting: the figure for `CNC1=Nc2ccc(C#C[Si](C)(C)C)cc2C(c2ccccc2)=NC1` is 210 to 211 °C; for `C[Si](C)(C)C#Cc1ccc2c(c1)C(c1ccccn1)=NCC(=O)N2` it is 242 to 243 °C; for `CN1C(=O)CN=C(c2ccccn2)c2cc(C#C[Si](C)(C)C)ccc21` it is 194 to 195 °C.
Still for that read-out and setting: the figure for `C#Cc1ccc2c(c1)C(c1ccccn1)=NCC(=O)N2C` is 190 to 191 °C; for `CCOC(=O)c1ncn2c1CN=C(c1ccccn1)c1cc(C#C[Si](C)(C)C)ccc1-2` it is 205 to 206 °C.
The same measure, in the same setting: the value for `O=C(OCC(Cl)(Cl)Cl)c1ncn2c1CN=C(c1ccccc1)c1cc(Br)ccc1-2` was 113 to 116 °C; that for `C[Si](C)(C)C#Cc1ccc2c(c1)C(c1ccccc1)=NCc1c(C(=O)OCC(F)(F)F)ncn1-2` was 107 to 110 °C.
For the molecule `C#Cc1ccc2c(c1)C(c1ccccc1F)=NC(C)c1c(C(=O)OCC)ncn1-2` (single isomer, unassigned) [SH-053-2′F-R-CH3, 8-Ethynyl-6-(2-fluorophenyl)-4-methyl-4H-2,5,10b-triaza-benzo[e]azulene-3-carboxylic acid ethyl ester], in the data set on rhesus monkeys, the “sedative activity (conflict model)” value was “not sedating” and the “anxiolytic effect (conflict model)” value was “only a weak anxiolytic”.
In the case of `C#Cc1ccc2c(c1)C(c1ccccc1F)=NC(C)c1c(C(=O)OCC)ncn1-2` (single isomer, unassigned) [SH-053-2′F-S-CH3, 8-Ethynyl-6-(2-fluorophenyl)-4-methyl-4H-2,5,10b-triazabenzo[e]azulene-3-carboxylic acid ethyl ester], the “no sedation up to dose” value with rhesus monkeys (conflict model) was in the range of 10 to 18 mg/kg. Also, the “anxiolytic effect (conflict model)” value in the data set with rhesus monkeys is “anxiolytic”.
The molecule `C#Cc1ccc2c(c1)C(c1ccccc1)=NCc1c(C(=O)OCC(F)(F)F)ncn1-2` [DM-II-20, Trifluoroethyl 8-acetylenyl-6-phenyl-4H-benzo[f]imidazo[1,5-a][1,4]diaze-pine-3-carboxylate] yielded a melting point of 188 to 190 °C.
For the molecule `CCOC(=O)c1ncn2c1CN(C)C(=O)c1cc(F)ccc1-2` [Flumazenil, flumazenil, reference compound], the “AUC of mechanical PWT, HZ166 followed by flumazenil” value in data set [1] (HZ166 16 mg/kg i.p., flumazenil 10 mg/kg i.p. 45 min later, n=6) worked out at 0.54 ± 0.25 g·h. Further, the “effect on the antihyperalgesic effect of HZ166” value in data set [1] (flumazenil 10 mg/kg i.p., HZ166 16 mg/kg) is recorded as “almost completely reversed”.
By Ki is commonly meant a dissociation constant, usually derived from enzyme kinetics or from competition with a known ligand. Low values mean higher affinity, high ones lower affinity. Turning to `C#Cc1ccc2c(c1)C(c1cccs1)=NCc1c(C(=O)OCC)ncn1-2` [JC-221, Ethyl 8-acetyleno-6-(2′-thienyl)-4H-benzo[f]imidazo[1,5-a][1,4]diazepine-3-carboxylate], in data set [2] (Binding Affinity at GABAA/α5, Table 3), the Ki worked out at 14.5 nM.
Take `C#Cc1ccc2c(c1)C(c1ccccn1)=NC(C)c1c(C(=O)OCC)ncn1-2` (stereo not drawn) [SH-053-2′N-S-CH3, 8-Ethynyl-4-methyl-6-pyridin-2-yl-4H-2,5,10b-triaza-benzo[e]azulene-3-carboxylic acid ethyl ester]: the Ki in data set [3] is 6950 nM; in data set [4], 2330 nM; in data set [5], 2650 nM; in data set [2] (Binding Affinity at GABAA/α5, Table 4, stereoisomers), 744 nM.
As to `C#Cc1ccc2c(c1)C(c1ccccc1)=NCc1c(C(=O)OCC)ncn1-2` [XHE-II-053, Ethyl 8-acetylenyl-6-phenyl-4H-benzo[f]imidazo[1,5-a][1,4]diazepine-3-carboxylate], the “analgesic effect, mechanical sensitivity (von Frey) in CCI model” value in data set [1] (10 mg/kg i.p.) is reported as “significantly analgesic”. The “analgesic effects in the chronic constriction injury model of neuropathic pain” value in data set [1] (mouse, in vivo) is “analgesic effects”. For the same molecule, in the data set on rhesus monkeys, the “sedative activity (conflict model)” value is recorded as “no sedative activity” and the “anxiolytic effect (conflict model)” value was “anxiolytic”.

For the origin of these results see patent USRE47475E1, “Selective agents for pain suppression” (WiSys Technology Foundation, Inc., priority 2002, dated 2019).
